Measured values as given in patent US20140323500A1, “NADPH OXIDASE 4 INHIBITORS AND USE THEREOF” (GENKYOTEX SA, priority 2011, published 2014).

Legend:
human Nox4 = target: T1, human Nox4 (Homo sapiens, UniProt Q9NPH5); experiment: ROS production by membranes expressing human Nox4, cell-free Amplex Red assay; format: biochemical; conditions: cell-free membranes, Amplex Red; Cheng-Prusoff; average of at least three experiments in triplicate; read-out: Ki hNox4
T1 construct: expressed in transfected cells; host or cells: T-REx-293 (hNOX4 T-REx-293), tetracycline-induced; membrane fraction
T1 sequence (Q9NPH5 1-578): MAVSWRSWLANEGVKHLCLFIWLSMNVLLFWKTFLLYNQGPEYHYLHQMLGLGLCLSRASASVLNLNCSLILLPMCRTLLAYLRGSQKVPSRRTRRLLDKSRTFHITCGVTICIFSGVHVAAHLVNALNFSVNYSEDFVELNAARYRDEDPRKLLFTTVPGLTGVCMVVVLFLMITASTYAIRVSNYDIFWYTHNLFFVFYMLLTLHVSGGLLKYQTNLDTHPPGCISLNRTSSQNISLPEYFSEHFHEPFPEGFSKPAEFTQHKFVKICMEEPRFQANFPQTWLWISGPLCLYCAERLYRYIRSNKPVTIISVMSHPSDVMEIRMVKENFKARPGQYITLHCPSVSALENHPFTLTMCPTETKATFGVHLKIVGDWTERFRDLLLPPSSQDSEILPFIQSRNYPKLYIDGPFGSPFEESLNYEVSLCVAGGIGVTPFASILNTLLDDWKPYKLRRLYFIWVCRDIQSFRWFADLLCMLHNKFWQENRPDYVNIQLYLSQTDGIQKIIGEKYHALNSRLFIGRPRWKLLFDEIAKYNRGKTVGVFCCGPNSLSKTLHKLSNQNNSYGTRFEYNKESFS
T1 sequence (P13498 2-195 partner limits assumed): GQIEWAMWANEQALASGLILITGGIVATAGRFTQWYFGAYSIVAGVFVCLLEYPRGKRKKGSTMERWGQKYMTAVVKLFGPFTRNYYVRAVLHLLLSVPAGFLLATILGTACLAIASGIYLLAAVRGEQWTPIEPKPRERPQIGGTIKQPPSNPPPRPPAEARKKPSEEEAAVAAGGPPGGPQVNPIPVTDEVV
From the text: (§1) The Nox4 activity of Nox4 inhibitors according to the invention may be tested for their activity in the inhibition or reduction of formation of reactive oxygen species (ROS) from oxygen in cell free assays. In order to fully characterise Nox4 inhibitors, Nox subunit-specific cell-free, membrane-based systems have been developed and specific recombinant proteins have been added to membranes heterologously over-expressing their specific iso form. Nox enzymes produce superoxide (O2.−) as primary product, however due to the high instability and reactivity of this molecule which dismutates naturally into hydrogen peroxide (H2O2), therefore, read-out techniques involving probes that do measure H2O2 were used (e.g. using Amplex Red as a probe in order to facilitate consistent and accurate measurements). The activity of the compounds is tested in the following cell free assay using the techniques described here below:
Transfected T-REx™-CHO cells (R718-07) purchased from Invitrogen and T-REx™-293 cell line expressing hNOX4 (hNOX4 T-REx™-293) (Serrander et al., 2007, Biochem. J., 406, 105-114) were cultured in […]. Both media were supplemented with 10% FBS, 2 mM glutamine, penicillin (100 U/ml) and streptomycin (100 μg/ml). Selection pressure was maintained by continuous inclusion of blasticidin (5 μg/ml), and/or G418 (0.25 mg/ml), and/or Hygromycin (0.25 mg/ml) and/or zeocin (0.025 mg/ml).
(§2) Human Nox1, Nox2, Nox4, and Nox5 expression were induced with Tetracycline (1 μg/ml) during 24 h prior to the membrane preparation Membranes from transfected cells overexpressing Nox1, Nox2, Nox4 or Nox5 were prepared as previously described in Palicz et al., 2001, J. Biol. Chem., 76, 3090-3097. After resuspension in sonication buffer (11% sucrose, 120 mM NaCl, 1 mM EGTA in PBS, pH 7.4 for Nox4- or NOX5-expressing cells) or in relax buffer (10 mM Pipes, 3 mM NaCl, 3.5 mM MgCl2, 0.1M KCl, pH 7.4), cells were broken by sonication and centrifuged (200 g, 10 min). The supernatant was layered onto a 17/40% (w/v) discontinuous sucrose gradient and centrifuged (150,000×g for 60 min). Membrane fractions were collected from the 17/40% interface and were stored at −80° C. Protein concentration was determined with the Bradford reagent.
(§3) Reactive Oxygen Species (ROS) production by membranes expressing either human Nox1, or human Nox2 or human Nox4 or human Nox5 or by xanthine/xanthine oxidase were measured using the Amplex Red (AR) method following a slightly modified version of the manufacturer's instruction manual (Invitrogen). Briefly, membranes or xanthine were incubated in PBS with Amplex Red, Horse Radish Peroxidase (HRP) and appropriated co-factors. ROS production was induced by addition of NADPH to NOX-expressing membrane or by addition of xanthine to xanthine oxidase. Non-specific signal was measured in the absence of membranes or in the absence of xanthine.
Antagonist activity of compounds was measured in the presence of increasing concentrations ranging from 1 nM to 100 μM. After an incubation of 20 min in a plate shaker and incubator (Titramax 1000, VWR) at 37° C. with weak agitation (300 rpm), ROS levels were measured for 10 min in a BMG Fluostar microplate reader with excitation and emission wavelengths of 544 nm and 590 nm respectively.
Data were analysed using Prism (GraphPad Software Inc., San Diego, Calif.). Ki values were calculated using the Cheng-Prusoff equation and represent the average of at least three individual experiments performed in triplicate (Table 1). Nox4 inhibition was compared to that measured for Simvastatin (Enzo Life Sciences, CAS Number 79902-63-9) using the method described in Example 1. Reactive Oxygen Species (ROS) production by membranes expressing human Nox4 was measured using the Amplex Red (AR).

human Nox2 = target: T2, human Nox2 (Homo sapiens, UniProt P04839); experiment: ROS production by membranes expressing human Nox2, cell-free Amplex Red assay; format: biochemical; conditions: cell-free membranes, Amplex Red; Cheng-Prusoff; average of at least three experiments in triplicate; read-out: Ki hNox2
T2 construct: host or cells: T-REx-CHO (hNOX2 T-REx-CHO), tetracycline-induced; membrane fraction
T2 sequence (P04839 2-570 limits assumed): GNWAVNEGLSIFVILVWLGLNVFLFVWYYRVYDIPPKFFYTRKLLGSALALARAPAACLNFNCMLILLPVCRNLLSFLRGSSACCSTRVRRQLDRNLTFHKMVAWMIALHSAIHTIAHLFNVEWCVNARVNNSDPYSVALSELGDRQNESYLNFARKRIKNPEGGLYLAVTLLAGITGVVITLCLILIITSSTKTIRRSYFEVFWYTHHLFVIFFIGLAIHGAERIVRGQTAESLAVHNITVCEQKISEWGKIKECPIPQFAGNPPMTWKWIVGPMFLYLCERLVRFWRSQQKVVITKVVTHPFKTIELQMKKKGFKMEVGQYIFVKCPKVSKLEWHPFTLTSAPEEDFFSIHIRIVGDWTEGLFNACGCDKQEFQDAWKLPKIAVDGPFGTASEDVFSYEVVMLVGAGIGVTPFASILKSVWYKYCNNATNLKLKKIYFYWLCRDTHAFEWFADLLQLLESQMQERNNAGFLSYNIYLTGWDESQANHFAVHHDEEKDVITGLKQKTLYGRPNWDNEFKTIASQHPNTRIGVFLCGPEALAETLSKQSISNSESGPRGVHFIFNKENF
T2 sequence (P13498 2-195 partner limits assumed): T1 sequence (P13498 2-195 partner limits assumed)
From the text: as §1
Human Nox1 (NM_007052.4), human NOX2 (NM_000397), and human NOX5 (NM_0245052244) cDNAs were cloned into the pcDNA5/TO (Invitrogen). Human p22 (NM_000101.2) was cloned into pcDNA3.1/Zeo (+) (Invitrogen), and human NOXA1 (AY255769.1) and human NOXO1 (AB097667) were cloned into the bi-cistronic pVITRO1-neo-mcs plasmid (Invivogen).
Cells were transfected by using the FuGENE 6 method. Cells stably expressing functional human Nox1 (hNOX1 T-REx™-CHO) were obtained by co-transfecting T-REx™-CHO cells with human Nox1, human p22, human NOXA1 and human NOXO1. Cells stably expressing functional human Nox2 (hNOX2 T-REx™-CHO) were obtained by co-transfecting T-REx™-CHO cells with human nox2, human p22 and human cofactors. Cells stably expressing functional human Nox5 (hNOX5 T-REx™-CHO) were obtained by transfecting T-REx™-CHO cells with human Nox5. Co-transfected cells were selected with the appropriate antibiotics for 10 days. For the selection, hygromycin and G418 were used at 2 mg/ml and zeocin at 0.1 mg/ml. For the establishment of each stably transfected cell line, a pool of antibiotic-resistant cells was generated. Cells were cloned by limiting dilution. Several clones were established and investigated for ROS production upon tetracycline-induced hNox expression using a cellular AR assay. The expression of NOXes was done with tetracycline (1 μg/ml) during 24 h prior to the assay.
as §2, §3
Antagonist activity of compounds was measured in the presence of increasing concentrations ranging from 1 nM to 100 μM. […]

Row | SMILES | Ki (human Nox4) [nM] | Ki (human Nox2) [nM]
1 | O=c1c2c(-c3ccc(Cl)cc3F)n(Cc3cccnc3)c(=O)cc2[nH]n1-c1ccccc1Cl [(11), 4-(4-chloro-2-fluorophenyl)-2-(2-chlorophenyl)-5-(pyridin-3-ylmethyl)-1H-pyrazolo[4,3-c]pyridine-3,6(2H,5H)-dione] | 75 | 563
2 | O=c1c2c(-c3ccc(Cl)cc3F)n(Cc3ccncc3)c(=O)cc2[nH]n1-c1ccccc1Cl [(19), 4-(4-chloro-2-fluorophenyl)-2-(2-chlorophenyl)-5-(pyridin-4-ylmethyl)-1H-pyrazolo[4,3-c]pyridine-3,6(2H,5H)-dione] | 91 | 640
3 | COc1ccccc1-n1[nH]c2cc(=O)n(Cc3cccnc3)c(C)c2c1=O [(7), 2-(2-methoxyphenyl)-4-methyl-5-(pyridin-3-ylmethyl)-1H-pyrazolo[4,3-c]pyridine-3,6(2H,5H)-dione] | 72 | 1170
4 | Cc1c2c(=O)n(-c3ccccc3Cl)[nH]c2cc(=O)n1Cc1cccnc1 [(15), 2-(2-chlorophenyl)-4-methyl-5-(pyridin-3-ylmethyl)-1H-pyrazolo[4,3-c]pyridine-3,6(2H,5H)-dione] | 83 | 907
5 | O=c1c2c(-c3ccccc3F)n(Cc3cccnc3)c(=O)cc2[nH]n1-c1ccccc1Cl [(17), 2-(2-chlorophenyl)-4-(2-fluorophenyl)-5-(pyridin-3-ylmethyl)-1H-pyrazolo[4,3-c]pyridine-3,6(2H,5H)-dione] | 88 | 602
6 | COc1ccccc1-n1[nH]c2cc(=O)n(Cc3cccnc3)c(-c3ccc(Cl)cc3F)c2c1=O [(8), 4-(4-chloro-2-fluorophenyl)-2-(2-methoxyphenyl)-5-(pyridin-3-ylmethyl)-1H-pyrazolo[4,3-c]pyridine-3,6(2H,5H)-dione] | 73 | 750
7 | O=c1c2c(-c3cc(Cl)ccc3F)n(Cc3cccnc3)c(=O)cc2[nH]n1-c1ccccc1Cl [(9), 4-(5-chloro-2-fluorophenyl)-2-(2-chlorophenyl)-5-(pyridin-3-ylmethyl)-1H-pyrazolo[4,3-c]pyridine-3,6(2H,5H)-dione] | 74 | 650
8 | COc1ccc(-c2c3c(=O)n(-c4ccccc4Cl)[nH]c3cc(=O)n2Cc2cnccn2)cc1 [(2), 2-(2-chlorophenyl)-4-(4-methoxyphenyl)-5-(pyrazin-2-ylmethyl)-1H-pyrazolo[4,3-c]pyridine-3,6(2H,5H)-dione] | 48 | 670

Results, then the compound that gave them:

Row | Ki (human Nox4) [nM] | Ki (human Nox2) [nM] | SMILES
9 | 128 | 950 | O=c1c2c(-c3cc(Cl)cc(Cl)c3)n(Cc3ccncc3)c(=O)cc2[nH]n1-c1ccccc1Cl [(37), 2-(2-chlorophenyl)-4-(3,5-dichlorophenyl)-5-(pyridin-4-ylmethyl)-1H-pyrazolo[4,3-c]pyridine-3,6(2H,5H)-dione]
10 | 149 | 1500 | CN(C)c1cccc(-c2c3c(=O)n(-c4ccccc4Cl)[nH]c3cc(=O)n2Cc2cccnc2)c1 [(39), 2-(2-chlorophenyl)-4-[3-(dimethylamino)phenyl]-5-(pyridin-3-ylmethyl)-1H-pyrazolo[4,3-c]pyridine-3,6(2H,5H)-dione]
11 | 108 | 590 | COc1ccc(-c2c3c(=O)n(-c4ccccc4Cl)[nH]c3cc(=O)n2Cc2ccncc2)c(F)c1 [(27), 2-(2-chlorophenyl)-4-(2-fluoro-4-methoxyphenyl)-5-(pyridin-4-ylmethyl)-1H-pyrazolo[4,3-c]pyridine-3,6(2H,5H)-dione]
12 | 119 | 640 | O=c1c2c(-c3ccccc3F)n(Cc3ccccn3)c(=O)cc2[nH]n1-c1ccccc1Cl [(34), 2-(2-chlorophenyl)-4-(2-fluorophenyl)-5-(pyridin-2-ylmethyl)-1H-pyrazolo[4,3-c]pyridine-3,6(2H,5H)-dione]
13 | 100 | 2180 | O=c1c2c(-c3ccc(Cl)cc3)n(Cc3cccnc3)c(=O)cc2[nH]n1-c1ccccc1Cl [(25), 2-(2-chlorophenyl)-4-(4-chlorophenyl)-5-(pyridin-3-ylmethyl)-1H-pyrazolo[4,3-c]pyridine-3,6(2H,5H)-dione]
